The values below come from patent publication US20240351997A1, “NOVEL PARP7 INHIBITOR AND USE THEREOF” (SHANGHAI QILU PHARMACEUTICAL RESEARCH AND DEVELOPMENT …, priority 2021, published 2024).

Sequence of PARP7 (Q7Z3E1 whole entry): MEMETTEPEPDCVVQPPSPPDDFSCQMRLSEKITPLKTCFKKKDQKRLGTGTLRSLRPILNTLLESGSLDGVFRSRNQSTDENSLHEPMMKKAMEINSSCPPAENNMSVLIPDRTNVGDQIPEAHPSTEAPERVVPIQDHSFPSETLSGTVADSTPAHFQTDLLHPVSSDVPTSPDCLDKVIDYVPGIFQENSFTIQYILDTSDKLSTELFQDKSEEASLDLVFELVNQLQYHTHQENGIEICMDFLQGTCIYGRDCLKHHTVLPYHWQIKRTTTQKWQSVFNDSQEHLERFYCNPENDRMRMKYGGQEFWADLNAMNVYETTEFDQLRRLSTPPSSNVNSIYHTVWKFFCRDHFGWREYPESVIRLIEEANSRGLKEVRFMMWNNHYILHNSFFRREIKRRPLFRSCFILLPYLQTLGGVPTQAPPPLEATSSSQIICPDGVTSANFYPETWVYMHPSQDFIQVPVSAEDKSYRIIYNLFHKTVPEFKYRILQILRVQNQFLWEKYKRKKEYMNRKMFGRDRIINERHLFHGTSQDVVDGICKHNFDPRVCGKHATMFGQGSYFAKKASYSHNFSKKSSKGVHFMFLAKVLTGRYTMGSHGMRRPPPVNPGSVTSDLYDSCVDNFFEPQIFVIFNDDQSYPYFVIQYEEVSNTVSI

This assay addresses PARP7 (Homo sapiens (Human), UniProt Q7Z3E1). The assay can be described thus: In vitro enzymology experiment of PARP7 (enzymatic inhibition). The format is biochemical. On the procedure:
II. In Vitro Enzymology Experiment of PARP2, 3, 5A, 5B, 7, 12, and 15
1. Preparation of 384-well histone-coated plate: 25 μL of histone solution was added to each well, and the plate was incubated overnight at 4° C.
2. Preparation of PBST buffer, blocking buffer, and assay buffer
3. The 384-well histone-coated plate was washed three times with PBST buffer. The plate was blocked by 50 μL of blocking buffer for 1 hour at room temperature. The plate was then washed three times with PBST buffer.
2000× compound was prepared in a 96-well source plate. 50 nL of the compound was transferred from the source plate to a 96-well intermediate plate, and 39.95 μL of assay buffer was added to each well. The plate was shaken well and centrifuged at 1000 rpm for 1 minute.
5 μL of compound DMSO solution was transferred to each well.
An enzyme mixture was incubated at 25° C. for 10 minutes.
10 μL of the enzyme mixture was added, and incubated with the compound at room temperature for 10 minutes.
10 μL of assay buffer was added to the negative control well of the assay plate.
The plate was then washed three times with PBST buffer.
25 μL of Stre-HRP was added.
The plate was incubated at room temperature for 1 hour and washed three times with PBS buffer.
25 μL of QuantaRed Enhancer mix was added. The plate was incubated for 10 minutes.
2.5 μL of QuantaRed Stop Solution was added to terminate the peroxidase reaction, and the plate was shaken for 10 to 30 seconds.
7. Paradigm was used to read the plate immediately to detect the readings at Ex550/Em620.
Using equation (1) to fit the data in Excel to obtain inhibition values
Using equation (2) to fit the data in XL-Fit to obtain IC50 values
Y is the percentage of inhibition, and X is the compound concentration.
For the compound `O=C(O[C@H]1CCC[C@@H]1c1c[nH]c(=O)c(C(F)(F)F)c1)N1CCN(c2ncc(C(F)(F)F)cn2)CC1` [Example 56, (1S,2R)-2-(6-Oxo-5-(trifluoromethyl)-1,6-dihydropyridin-3-yl)cyclopentyl 4-(5-(trifluoromethyl)pyrimidin-2-yl)piperazine-1-carboxylate], the IC50 (commonly the concentration needed to halve the response being measured) was found to be 2.27 nM.
Turning to `C[C@@H]1CN(c2ncc(C(F)(F)F)cn2)CCN1C(=O)Oc1cccc(-c2c[nH]c(=O)c(C(F)(F)F)c2)c1` [Example 140, 3-(6-Oxo-5-(trifluoromethyl)-1,6-dihydropyridin-3-yl)phenyl (R)-2-methyl-4-(5-(trifluoromethyl)pyrimidin-2-yl)piperazine-1-carboxylate], the IC50 came out at 2.86 nM.
Next, `O=C(OCCc1c[nH]c(=O)c(C(F)(F)F)c1)N1CCN(c2ncc(C(F)(F)F)cc2F)CC1` [Example 130, 2-(6-Oxo-5-(trifluoromethyl)-1,6-dihydropyridin-3-yl)ethyl 4-(3-fluoro-5-(trifluoromethyl)pyridin-2-yl)piperazine-1-carboxylate]: 0.77 nM.
As for `C[C@@H]1CN(C(=O)OCCc2c[nH]c(=O)c(C(F)(F)F)c2)[C@@H](C)CN1c1ncc(C2CC2)cn1` [Example 183, 2-(6-Oxo-5-(trifluoromethyl)-1,6-dihydropyridin-3-yl)ethyl (2S,5R)-4-(5-cyclopropylpyrimidin-2-yl)-2,5-dimethylpiperazine-1-carboxylate], it took 1 nM to reach half-maximal inhibition (IC50).
`C[C@@H]1CN(C(=O)OCCc2c[nH]c(=O)c(C(F)(F)F)c2)CCN1c1ncc(C(F)(F)F)cn1` [Example 112, 2-(6-Oxo-5-(trifluoromethyl)-1,6-dihydropyridin-3-yl)ethyl (R)-3-methyl-4-(5-(trifluoromethyl)pyrimidin-2-yl)piperazine-1-carboxylate] displayed a 50% inhibitory concentration (IC50) of 0.62 nM.
Next, `CC[C@@H](Cc1c[nH]c(=O)c(C(F)(F)F)c1)OC(=O)N1CCN(c2ncc(C(F)(F)F)cn2)CC1` [Example 116, (S)-1-(6-Oxo-5-(trifluoromethyl)-1,6-dihydropyridin-3-yl) butan-2-yl 4-(5-(trifluoromethyl)pyrimidin-2-yl)piperazine-1-carboxylate]: 0.81 nM; `O=C(COC[C@@H]1CCCN1c1c[nH]c(=O)c(C(F)(F)F)c1)N1CCN(c2ncc(C(F)(F)F)cn2)CC1` [Example 7, (S)-5-(2-((2-Oxo-2-(4-(5-(trifluoromethyl)pyrimidin-2-yl)piperazin-1-yl)ethoxy)methyl)pyrrolidin-1-yl)-3-(trifluoromethyl)pyridin-2(1H)-one]: 2.79 nM.
Consider `Cc1cc(Cc2c[nH]c(=O)c(C(F)(F)F)c2)cc(C(=O)N2CCN(c3ncc(C(F)(F)F)cn3)CC2)c1` [Example 61, 5-(3-Methyl-5-(4-(5-(trifluoromethyl)pyrimidin-2-yl)piperazine-1-carbonyl)benzyl)-3-(trifluoromethyl)pyridin-2(1H)-one], for which 0.72 nM corresponded to half-maximal inhibition (IC50).
Next, `O=C(OCCc1c[nH]c(=O)c(C(F)(F)F)c1)N1CCN(c2ncc(C(F)(F)F)cn2)[C@H](CO)C1` [Example 111, 2-(6-Oxo-5-(trifluoromethyl)-1,6-dihydropyridin-3-yl)ethyl (S)-3-(hydroxymethyl)-4-(5-(trifluoromethyl)pyrimidin-2-yl)piperazine-1-carboxylate]: 0.61 nM; `C[C@@H](COC(=O)N1CCN(c2ncc(C(F)(F)F)cn2)CC1)c1c[nH]c(=O)c(C(F)(F)F)c1` [Example 27]: 1.1 nM; `Cc1cnc(N2C[C@@H](C)N(C(=O)OCCc3c[nH]c(=O)c(C(F)(F)F)c3)[C@@H](C)C2)nc1` [Example 163, 2-(6-Oxo-5-(trifluoromethyl)-1,6-dihydropyridin-3-yl)ethyl (2R,6S)-2,6-dimethyl-4-(5-methylpyrimidin-2-yl)piperazine-1-carboxylate]: 0.75 nM.
With `Cc1cc(CC(C)OC(=O)N2CCN(c3ncc(C(F)(F)F)cn3)CC2)c[nH]c1=O` (centres unmarked) [Example 67, 1-(5-Methyl-6-oxo-1,6-dihydropyridin-3-yl)propan-2-yl 4-(5-(trifluoromethyl)pyrimidin-2-yl)piperazine-1-carboxylate] the figure was 0.76 nM; with `C[C@@H](Cc1c[nH]c(=O)c(C(F)(F)F)c1)OC(=O)N1CCN(c2ncc(C(F)(F)F)cn2)C[C@@H]1C` [Example 92, (S)-1-(6-Oxo-5-(trifluoromethyl)-1,6-dihydropyridin-3-yl)propan-2-yl (S)-2-methyl-4-(5-(trifluoromethyl)pyrimidin-2-yl)piperazine-1-carboxylate], 0.19 nM.
With `O=C(CCOC[C@H]1CCCN1c1c[nH]c(=O)c(C(F)(F)F)c1)N1CCN(c2ncc(C(F)(F)F)cn2)CC1` [Example 10, (R)-5-(2-((3-Oxo-3-(4-(5-(trifluoromethyl)pyrimidin-2-yl)piperazin-1-yl)propoxy)methyl)pyrrolidin-1-yl)-3-(trifluoromethyl)pyridin-2(1H)-one] the figure was 6.7 nM; with `Cc1cnc(N2C[C@H](C)N(C(=O)O[C@@H](C)Cc3c[nH]c(=O)c(C(F)(F)F)c3)C[C@H]2C)nc1` [Example 170, (S)-1-(6-Oxo-5-(trifluoromethyl)-1,6-dihydropyridin-3-yl)propan-2-yl (2S,5R)-2,5-dimethyl-4-(5-methylpyrimidin-2-yl)piperazine-1-carboxylate], 0.87 nM.
In the case of `C[C@@H](Cc1c[nH]c(=O)c(C(F)(F)F)c1)OC(=O)N1[C@@H](C)CN(c2ncc(C(F)(F)F)cn2)C[C@@H]1C` [Example 159, (S)-1-(6-Oxo-5-(trifluoromethyl)-1,6-dihydropyridin-3-yl)propan-2-yl (2S,6S)-2,6-dimethyl-4-(5-(trifluoromethyl)pyrimidin-2-yl)piperazine-1-carboxylate], it took 0.9 nM to reach half-maximal inhibition (IC50).
In the case of `CC[C@H]1CN(c2ncc(C(F)(F)F)cn2)CCN1C(=O)OCCc1c[nH]c(=O)c(C(F)(F)F)c1` [Example 121, 2-(6-Oxo-5-(trifluoromethyl)-1,6-dihydropyridin-3-yl)ethyl (S)-2-ethyl-4-(5-(trifluoromethyl)pyrimidin-2-yl)piperazine-1-carboxylate], the IC50 was 0.54 nM.
With `C[C@@H](Cc1c[nH]c(=O)c(C(F)(F)F)c1)OC(=O)N1CCN(c2ccc(C(F)(F)F)cc2)CC1` [Example 97, (S)-1-(6-Oxo-5-(trifluoromethyl)-1,6-dihydropyridin-3-yl)propan-2-yl 4-(4-(trifluoromethyl)phenyl)piperazine-1-carboxylate] the figure was 0.86 nM; with `Cc1cnc(N2CCN(C(=O)OCCc3c[nH]c(=O)c(C(F)(F)F)c3)CC2)nc1` [Example 105], 0.92 nM; with `O=C(OCCc1c[nH]c(=O)c(C(F)(F)F)c1)N1CCN(c2ncc(C3CCCCC3)cn2)CC1` [Example 118, 2-(6-Oxo-5-(trifluoromethyl)-1,6-dihydropyridin-3-yl)ethyl 4-(5-cyclohexylpyrimidin-2-yl)piperazine-1-carboxylate], 0.93 nM.
With `O=C(OCCc1c[nH]c(=O)c(C(F)(F)F)c1)N1CCN(c2cnc(C(F)(F)F)cn2)CC1` [Example 127, 2-(6-Oxo-5-(trifluoromethyl)-1,6-dihydropyridin-3-yl)ethyl 4-(5-(trifluoromethyl)pyrazin-2-yl)piperazine-1-carboxylate] the figure was 0.49 nM; with `O=C(CCCc1c[nH]c(=O)c(C(F)(F)F)c1)N1CCN(c2ncc(C(F)(F)F)cn2)CC1` [Example 37, 5-(4-Oxo-4-(4-(5-(trifluoromethyl)pyrimidin-2-yl)piperazin-1-yl)butyl)-3-(trifluoromethyl)pyridin-2(1H)-one], 0.9 nM; with `C[C@@H](Cc1c[nH]c(=O)c(C(F)(F)F)c1)OC(=O)N1CCN(c2ncc(C(F)(F)F)cn2)[C@H](CO)C1` [Example 80, (S)-1-(6-Oxo-5-(trifluoromethyl)-1,6-dihydropyridin-3-yl)propan-2-yl (S)-3-(hydroxymethyl)-4-(5-(trifluoromethyl)pyrimidin-2-yl)piperazine-1-carboxylate], 1.5 nM.
Next, `O=C(OC[C@@H]1CCCN1c1c[nH]c(=O)c(C(F)(F)F)c1)N1CCN(c2ncc(C(F)(F)F)cn2)CC1` [Example 29, (S)-(1-(6-Oxo-5-(trifluoromethyl)-1,6-dihydropyridin-3-yl)pyrrolidin-2-yl)methyl 4-(5-(trifluoromethyl)pyrimidin-2-yl)piperazine-1-carboxylate]: 5.6 nM; `C[C@@H]1CN(c2ncc(C(F)(F)F)cn2)C[C@H](C)N1C(=O)O[C@@H](C)Cc1c[nH]c(=O)c(C(F)(F)F)c1` [Example 156, (S)-1-(6-Oxo-5-(trifluoromethyl)-1,6-dihydropyridin-3-yl)propan-2-yl (2R,6S)-2,6-dimethyl-4-(5-(trifluoromethyl)pyrimidin-2-yl)piperazine-1-carboxylate]: 0.98 nM; `O=C(Oc1ccccc1-c1c[nH]c(=O)c(C(F)(F)F)c1)N1CCN(c2ncc(C(F)(F)F)cn2)CC1` [Example 134, 2-(6-Oxo-5-(trifluoromethyl)-1,6-dihydropyridin-3-yl)phenyl 4-(5-(trifluoromethyl)pyrimidin-2-yl)piperazine-1-carboxylate]: 1.92 nM.
